Data taken from a melting point compilation (Tetko et al.; mined from patent text by program, amines drawn as free bases though some values may be those of a salt).

Row | melting point [°C] | SMILES
1 | 94 to 95 | O=S(=O)(Cc1ccc(Cl)cc1)Cc1ccc(Cl)cc1
2 | 335 to 337 | COc1ccccc1-n1c(=O)[nH]c2c(C(N)=O)nc(-c3cccc4ncccc34)nc21
3 | 186 to 189 | COC(=O)Nc1ccc(NC(=O)CN(C)C)c([N+](=O)[O-])c1
4 | 232 to 235 | Nc1nnc(-c2cc(Cl)cc(Cl)c2Cl)c(N)n1
5 | 164 to 166 | N[C@@H](C[C@@H](CC#Cc1ccccc1)C(=O)O)C(=O)O
6 | 160 to 161 | CONC(C(C)=O)c1cc(-n2c(=O)cc(C(F)(F)F)n(C)c2=O)ccc1Cl (stereo not given)
7 | 185 to 186 | N#CCCNC(=O)c1cccc(-c2cccc3nn(Cc4cccc(Cl)c4)cc23)c1
8 | 154 to 155 | Nc1ccc(C2(C(=O)O)CC2C(=O)O)cc1 (stereo not given)
9 | 293 to 298 | CCCNC1=NS(=O)(=O)c2c(sc(C)c2C#N)N1
10 | 159 | c1ccc(CNc2nc3ccccc3s2)cc1
11 | 233 to 235 | COC(=O)Nc1coc2cc(NS(C)(=O)=O)c(Oc3ccccc3)cc2c1=O
12 | 201 | CS(=O)(=O)C(=C1CN(C(c2ccccc2)c2ccccc2)C1)c1cccc(Cl)c1Cl
13 | 291 to 295 | CC(C)n1nc(-c2c(-c3ccccc3)nc(N)[nH]c2=O)ccc1=O
14 | 330 to 331 | CCCCOc1ccc(-c2ccc(-c3ccc(-c4ccc(-c5ccc(OCCCC)cc5)s4)c4nsnc34)s2)cc1
15 | 188 to 191 | COc1cc2oc(=O)c(CCOS(C)(=O)=O)c(C)c2cc1OC
16 | 135 to 136 | Cc1oc2c(C)c(C)c(NCc3ccc(F)cc3)c(C)c2c1-c1ccccc1
17 | 207 to 208 | C#Cc1cc(F)c(-n2c(=O)c(C)c(C(F)(F)F)n(C)c2=O)cc1NS(C)(=O)=O
18 | 120 to 126 | Cc1ccc(NC(=O)C(C)(C)C)c(-c2cccc(Br)n2)c1
19 | 125 to 135 | Cc1noc(NS(=O)(=O)c2ccccc2-c2ccc(-c3ncco3)cc2CN(C)C(=O)c2ccccc2Cl)c1C
20 | 134 to 135 | O=S(=O)(c1ccccc1)c1cc(Br)nc(Br)c1
21 | 74 to 78 | CC(=O)N(C(=NC1CCCCC1)ON=C(C)C)C1CCCCC1
22 | 97 to 99 | CC1(C)Oc2cc(Cl)c(F)cc2[C@@H](Br)[C@@H]1O (relative stereo)
23 | 247 to 248 | Cc1cccc2c(=O)n3c(nc12)C(=O)c1ccccc1-3

Row | melting point [°C] | SMILES
24 | 82 to 84 | COc1ccc(O)c(CNc2ccccc2)c1
25 | 244 | CCCCc1nc(SC)c(C(=O)OCC)n1Cc1ccc(-c2ccc(S(=O)(=O)NC#N)cc2)cc1
26 | 242 to 244 | NC(=O)c1ccccc1-c1cc([N+](=O)[O-])ccc1-c1ccc([N+](=O)[O-])cc1
27 | 121 to 122 | CC(=O)OCCOc1cccc(C(N)=O)c1
28 | 197 to 203 | CC(=O)c1ccc2c(c1)C(C(=O)Nc1cccc(C(=O)Nc3ccccc3)c1)C(=O)N2CC(F)(F)F (stereo not given)
29 | 71 to 73 | COC(=O)[C@@H]1O[C@@H](c2ccccc2)N(NS(=O)(=O)c2c3ccccc3cc3ccccc23)[C@H]1c1ccccc1
30 | 117 to 121 | COc1ccc(CN(C(=O)Nc2ccc(C(=O)O)cc2)c2ccc3c(c2)C(C)(C)CCC3(C)C)cc1
31 | 92.5 to 102 | COC(=O)c1ccccc1N(c1ccccc1)C1(c2ccc(N(C)C)cc2)OC(=O)c2ccccc21 (stereo not given)
32 | 193 to 195 | CCCC(=O)NS(=O)(=O)c1ccc(C(=O)/C=C/c2cc(N3CCCC3)c(OC)cc2OC)cc1
33 | 206 to 208 | COc1ccc(S(=O)(=O)Nc2ccc(Cl)nc2Nc2ccccc2)cc1
34 | 164 to 165 | O=C(Cn1ccnc1[N+](=O)[O-])NCCO
35 | 70 | Cc1c(F)cccc1Cc1c(-c2ccccc2)c2ccccn2c1C(=O)N1CCN(C(=O)OC(C)(C)C)[C@@H](CCO[Si](C)(C)C(C)(C)C)C1
36 | 88.5 to 90 | N#Cc1ccccc1OCCCN1CCC(C(c2ccc(F)cc2)c2ccc(F)cc2)CC1
37 | 119 to 120 | O=C(O)c1cn(Cc2ccc(OCc3csc(-c4ccccc4)n3)cc2)nc1-c1ccccc1
38 | 156 to 158 | CCOC(=O)CNC(=S)Cc1cnc(C)c2c1COC(C)(C)O2
39 | 191 | CCCC(=O)N[C@H]1CC[C@H](CCN2CCN(c3nccc4c3CCO4)CC2)CC1
40 | 181 to 182 | COC(=O)c1cccc(C)c1NS(=O)(=O)c1nc2nc(C)cc(C)n2n1
41 | 117 to 119 | O=S(=O)(Nc1cccc(Cl)c1Cl)c1cc(S(=O)(=O)Nc2cccc(Cl)c2Cl)c2cc(O)ccc2c1
42 | 125 to 128 | CCCCNc1nc(C)c(C(=O)c2ccc(Cl)c([N+](=O)[O-])c2)s1
43 | 139 to 140 | CCC(CC)(CCCS(N)(=O)=O)COc1nn2ccnc2cc1C
44 | 173 to 175 | O=C(O)COc1c(-c2cccc(Cl)c2)cc(C(=O)NCCCC2CCCC2)cc1-c1cccc(C(F)(F)F)c1
45 | 166 to 168 | Cc1nc2ccccc2n1-c1ccc(C#N)cc1
46 | 10 | CC1(C)CCC(C)(C)c2cc(C(O)CCC(=O)O)ccc21 (stereo not given)

Row | melting point [°C] | SMILES
47 | 116 to 119 | CCCCCCCCCCOc1cccc(Nc2nnc(Cc3ccncc3)c3ccccc23)c1
48 | 145 | O=C1CCc2cc(Oc3ccc(F)cc3F)c([N+](=O)[O-])cc21
49 | 97 to 100 | CN(Cc1ccccc1)[C@@H](CC(N)=O)C(=O)N[C@@H](Cc1ccccc1)[C@H](O)C(=O)N1CCC[C@H]1C(=O)NC(C)(C)C
50 | 139 to 140 | CCOC(=O)N1CCN(c2nc(=O)c3cccnc3s2)CC1
51 | 165 | Cc1cc(C(=O)Nc2ccc(OCC(C)(C)C)c(C#N)c2)n(-c2ccc(F)cc2)n1
52 | 240 | CNC(=O)[C@@H]1CCC[C@@H]1Nc1nc(Nc2cc3c(cc2OC)CCN(CC(=O)N(C)C)CC3)ncc1Cl (relative stereo)
53 | 120 to 121 | CCOC(=O)/C=C/c1cc2cc(OCc3nc(-c4ccccc4)oc3C)ccc2o1
54 | 188 to 196 | COC(=O)c1cc2cc3c(cc2[nH]1)OCC(=O)N3
55 | 146 to 147 | Cc1c(Cc2cccc(C(F)(F)F)c2)oc2c(-c3cccc(C(=O)NCCS(C)=O)c3)cccc12 (stereo not given)
56 | 173 to 175 | CC(O)c1cc(S(N)(=O)=O)sc1S(=O)(=O)c1ccc(O)cc1 (stereo not given)
57 | 196 to 198 | COc1ccc(-c2cc3nc(N4CCC4)c4ccccc4c3nn2)cc1
58 | 119 | N#CCC(=O)NCc1ccc(Cl)nc1
59 | 142 to 145 | C#CCOc1cc(-c2nc3n(c2Cl)CCCC3)c(F)cc1Cl
60 | 292 | NS(=O)(=O)c1ccc(-c2nc(-c3cnn4c(C(F)(F)F)cc(-c5ccc(C(F)(F)F)cc5)nc34)no2)cc1
61 | 107 to 109 | O=C(Cl)[C@@H]1CCCN1S(=O)(=O)c1ccc2ccccc2c1
62 | 223 | CS(=O)(=O)c1ccc(-n2cnc(Cl)c2-c2ccc(Cl)nc2)cc1
63 | 113 to 114 | Cc1ccc(-c2nc3ccccc3o2)cc1
64 | 104 | CC(C)(C)[C@@H](O)c1cccc(-c2ccc(OCCO)cc2)n1
65 | 138 to 139 | C/C(=C\CC1OC(=O)NC1=O)c1cccc(Cc2nc(-c3ccccc3)oc2C)c1 (stereo not given)
66 | 195 | COc1ccc(F)cc1NC(=O)Nc1ccc(N2CCN(C(=O)Nc3ccc(OCC(O)CO)cc3C(F)(F)F)CC2)nc1 (stereo not given)
67 | 112 | COc1ccc(S(N)(=O)=O)cc1C(O)CCl (stereo not given)
68 | 111 to 123 | COc1cc2c(cc1Nc1ncc(Cl)c(Nc3ccccc3S(C)(=O)=O)n1)CCN(CC(N)=O)CC2
69 | 175 to 177 | CC(C)(C)OC(=O)NC(Cc1ccccc1)C(=O)NC(Cc1ccccc1)C(=O)NCCc1c[nH]cn1 (stereo not given)

Row | melting point [°C] | SMILES
70 | 161 to 163 | FC(Cc1ccc(Cl)cc1)(Cn1cncn1)Cn1cncn1
71 | 224 | CC(C)(C(O)c1ccc(Br)cc1)n1ncn(-c2ccc(N3CCN(c4ccc(O)cc4)CC3)cc2)c1=O (stereo not given)
72 | 155 to 156 | CCCc1cn2cc(C(=O)OC)nc2s1
73 | 162 | COC(=O)c1cc2ccc(Cl)c(Cl)c2o1
74 | 245 to 246 | CC(/C=C/C=C(\C)C1=Cc2cc(C(F)(F)F)ccc2OC1)=C\C(=O)O
75 | > 300 | CCCn1c(=O)c(=O)[nH]c2cc([N+](=O)[O-])c(-n3ccc(=O)c([N+](=O)[O-])c3)cc21
76 | 88.5 to 93 | COC(=O)C(Br)(C1=NCCCS1)[N+](=O)[O-] (stereo not given)
77 | 51 to 59 | CCOC(=O)CC(=O)c1cc(F)c(Br)c(F)c1F
78 | 113 to 115 | Cc1cccc(-c2[nH]c(C(C)C)nc2-c2ccc(F)c(-c3ccc(S(C)(=O)=O)cc3)c2)n1
79 | 147 to 148 | O=C(Cc1noc2ccccc12)NS(=O)(=O)C1CC1
80 | 128 to 130 | CCOC(=O)C(S)(C#N)C1=NC(C)Cc2cc(OC)c(OC)cc21 (stereo not given)
81 | 140 to 141 | CSc1cc(C)nc(SC)c1NC(=O)CN1CCN(CCSc2nc3ccccc3o2)CC1
82 | 127 to 129 | COCCN(C)CC1=Cc2cc(S(N)(=O)=O)sc2S(=O)(=O)N1C
83 | 125 to 128 | CCN(CC)c1nc(N)c2ccccc2n1
84 | 245 to 246 | Cn1ncc(/C=C/C(=O)Nc2ccc(CC(=O)O)cc2)c1-c1ccc(F)cc1
85 | 52 to 53 | BrCc1ccc(CCc2ccccc2)cc1
86 | 249 | CN(C)c1nc2c(c(=O)[nH]1)CC(S(=O)(=O)c1ccccc1)CC2 (stereo not given)
87 | 134 | Nc1nc(N)c2c(n1)CCC(Cc1ccccc1Cl)C2 (stereo not given)
88 | 184 to 185 | COc1ccnc(CS(=O)c2nc3cc4c(cc3[nH]2)OC(F)(F)O4)c1 (stereo not given)
89 | 248 | O=C(O)c1nc2c(=O)[nH]c3cc(C(F)(F)F)ccc3n2c1CNCc1ccccc1
90 | 173 | c1ccc2c3c([nH]c2c1)C(c1ccc2c(c1)OCO2)NCC3 (stereo not given)
91 | 243 to 244 | CN(C)C(=O)C1=NN(c2ccccc2)C(C(N)=O)=NN1c1ccccc1

Row | SMILES | melting point [°C]
92 | Cc1cc(OCC2CO2)c2c3c(c(=O)oc2c1)CCCC3 (stereo not given) | 164 to 165
93 | CN1C(=O)C(N)N=C(c2ccccc2)c2ccncc21 (stereo not given) | 94 to 118
94 | CN1Cc2c(C(N)=S)ncn2-c2ccccc2C1=O | 295 to 297
95 | CC1=C(c2c[nH]c(-c3ccc(F)cc3)c2-c2ccncc2)CCN2CCC[C@@H]12 | 233 to 234
